# Measurements: patent US20120238488A1, “COMPOUNDS AND METHODS FOR TREATING NEOPLASIA” (priority 2009, published 2012)
# Where two headings read alike, the source gives them in different places.
# Assays:
# DU145 (Prostate) = assay: SRB assay, DU145; assay type: cell-based, human; conditions: for TGI / GI50: DU145, SRB, 48 h; for CC50 / GI50: Homo sapiens; for CC50: DU-145, 48 h, read-out: LC50; for GI50: DU-145
# Description: (§1) SRB assays were performed according to standard National Cancer Institute Guidelines. Briefly, human tumor cells from different cancer panels were seeded into 96 well plates in 100 μL (plating densities ranging from 5-40,000 cells/well depending on the doubling time of individual cell lines) in serum-containing media for twenty-four hours prior to the addition of the compounds to be assayed. After 24 hours, one plate of each cell line was fixed in situ with trichloroacetic acid (TCA). The fixed slides were used to determine the cell population for each cell line at the time of drug addition (Tz). Each compound to be tested was solubilized in DMSO and the desired concentration was then added to the medium and diluted serially 1:10 to provide a total of five or ten drug concentrations plus control (in a final volume of 200 μL). The starting dose before any dilution was 100 uM for all compounds.
# (§2) Following drug addition, each culture was incubated for forty-eight hours. The assay was terminated with the addition of cold TCA. The supernatant was discarded, and the plates were washed with tap water and air dried. Sulforhodamine B (SRB) solution was then added to each well. After staining, the bound stain was solubilized and the absorbance was read on an automated plate reader at a wavelength of 515 nm.
# (§3) Using the absorbance measurements [time zero, (Tz), control growth, (C), and test growth in the presence of drug at the ten concentration levels (Ti)], the percentage growth was calculated at each of the drug concentrations levels. Percentage growth inhibition was calculated as:
# (§4) [(Ti−Tz)/(C−Tz)]×100 for concentrations for which Ti>/=Tz
# (§5) [(Ti−Tz)/Tz]×100 for concentrations for which Ti<Tz.
# (§6) Three dose response parameters were calculated for each experimental agent. Growth inhibition of 50% (GI50) was calculated from [(Ti−Tz)/(C−Tz)]×100=50, which was the drug concentration resulting in a 50% reduction in the net protein increase (as measured by SRB staining) in control cells during the drug. The drug concentration resulting in total growth inhibition (TGI) was calculated from Ti=Tz. The LC50 (concentration of drug resulting in a 50% reduction in the measured protein at the end of the drug treatment as compared to that at the beginning) indicating a net loss of cells following treatment was calculated from [(Ti−Tz)/Tz]×100=−50.
# (§7) Values were calculated for each of these three parameters when the level of activity was reached; however, if the effect was not reached or was exceeded, the value for that parameter was expressed as greater or less than the maximum or minimum concentration tested.
# (§8) Table 4 summarizes results characterizing the effects of compound Nos. 120, 12, 61, 1, and 56 on GI50, which measures the cell growth inhibitory power of the compound, TGI, which measures cytostatic effect (TGI) and LC50, which signifies cytotoxic effect. Each of these parameters in Table 4 was calculated in a sulforhodamine B (SRB) assay, which provides a colorimetric measure of a compound's anti-cancer activity. SRB assays were performed with compounds of the invention in 22 different cell lines (shaded in light gray in Table 4), which represent nine different tumor panels (lung, melanoma, ovary, prostate, CNS, breast, pancreas colon and renal). Ouabain and digoxin were used as controls. Paclitaxel was added as a non-Na^+K^+-ATPase inhibitor control.
# [1] = tested on: Na+/K+-ATPase (Adenosine 5′-Triphosphatase isolated from porcine cerebral cortex); assay: Na+/K+-ATPase inhibitory activity, colorimetric Adenosine 5'-Triphosphatase Enzymatic Assay; assay type: biochemical
# Description: The inhibitory effect of a compound of the invention on ATPase activity was assessed in vitro using the colorimetric Adenosine 5′-Triphosphatase Enzymatic Assay of Sigma (St. Louis, Mo.) according to the manufacturer's instructions. This assay utilizes Adenosine 5′-Triphosphatase isolated from porcine cerebral cortex. Each reaction was performed in a final volume of 250 μl using 0.5 units/ml enzyme in the presence of different inhibitors. […] IC50 values were determined using the Origin® program software (OriginLab, Northampton, Mass.).
# HCT116 (Colon) = assay: SRB assay, HCT116; assay type: cell-based; conditions: Homo sapiens; for CC50: HCT-116, 48 h, read-out: LC50; for GI50 / IC (TGI): HCT-116, HCT116, SRB, 48 h
# Description: as §1, §2, §3, §4, §5, §6, §7, §8
# CAKJ1 (Renal) = assay: SRB assay, CAKJ1; assay type: cell-based, human; conditions: 48 h; for TGI / GI50: CAKJ1, SRB; for CC50 / GI50: Homo sapiens; for CC50: read-out: LC50
# Description: as §1, §2, §3, §4, §5, §6, §7, §8
# A549 (Lung) = assay: SRB assay, A549; assay type: cell-based, human; conditions: for TGI / GI50: A549, SRB, 48 h; for CC50 / GI50: Homo sapiens; for CC50: A549, 48 h, read-out: LC50
# Description: as §1, §2, §3, §4, §5, §6, §7, §8
# SF268 (CNS) = assay: SRB assay, SF268; assay type: cell-based; conditions: Homo sapiens; for CC50: SF-268, 48 h, read-out: LC50; for GI50 / IC (TGI): SF-268, SF268, SRB, 48 h; for GI50: read-out: GI50; for IC (TGI): read-out: TGI
# Description: as §1, §2, §3, §4, §5, §6, §7, §8
# OVCAR3 (Ovary) = assay: SRB assay, OVCAR3; assay type: cell-based, human; conditions: for CC50 / GI50: Homo sapiens; for CC50: OVCAR-3, 48 h, read-out: LC50; for GI50: OVCAR-3; for GI50 / TGI: OVCAR3, SRB, 48 h
# Description: as §1, §2, §3, §4, §5, §6, §7, §8
# OVCAR5 (Ovary) = assay: SRB assay, OVCAR5; assay type: cell-based, human; conditions: for CC50 / GI50: Homo sapiens; for CC50: OVCAR-5, 48 h, read-out: LC50; for GI50: OVCAR-5; for GI50 / TGI: OVCAR5, SRB, 48 h
# Description: as §1, §2, §3, §4, §5, §6, §7, §8
# ERVK (Lung) = assay: SRB assay, ERVK; assay type: cell-based, human; conditions: 48 h; for TGI / GI50: ERVK, SRB; for CC50 / GI50: Homo sapiens; for CC50: read-out: LC50
# Description: as §1, §2, §3, §4, §5, §6, §7, §8
# SKMEL28 (Melanoma) = assay: SRB assay, SKMEL28; assay type: cell-based, human; conditions: for CC50 / GI50: Homo sapiens; for CC50: SK-MEL-28, 48 h, read-out: LC50; for GI50: SK-MEL-28; for GI50 / TGI: SKMEL28, SRB, 48 h
# Description: as §1, §2, §3, §4, §5, §6, §7, §8
# PCJ (Prostate) = assay: SRB assay, PCJ; assay type: cell-based; conditions: Homo sapiens, 48 h; for CC50: read-out: LC50; for GI50 / IC (TGI): PCJ, SRB
# Description: as §1, §2, §3, §4, §5, §6, §7, §8
# MB435 (Melanoma) = assay: SRB assay, MB435; assay type: cell-based, human; conditions: 48 h; for CC50 / GI50: Homo sapiens; for CC50: read-out: LC50; for GI50 / TGI: MB435, SRB
# Description: as §1, §2, §3, §4, §5, §6, §7, §8
# ADRRES (Ovary) = assay: SRB assay, ADRRES (multidrug resistant NCI-ADR-RES); assay type: cell-based, human; conditions: for TGI / GI50: ADRRES; for TGI / CC50 / GI50: 48 h; for CC50 / GI50: Homo sapiens, NCI/ADR-RES; for CC50: read-out: LC50; for anti-tumor action in multidrug resistant cell line NCI-ADR-RES: cells express high levels of MDR1 and P-glycoprotein
# Description: NCI-ADR-RES cells have been classified as ovarian cancer cells by the National Cancer Institute.
# as §1, §2, §3, §4, §5, §6, §7, §8
# Table 4 also presents results with Compound Nos. 120, 12, 61, 1, and 56 in a well characterized drug resistant cell line, NCI-ADR-RES, that expresses high levels of MDR1 and P-glycoprotein.
# [2] = 0.5 units/ml enzyme, five concentrations 10^−5 to 10^−9M, read-out: Na+ K+ Inhibitory Activity (IC50)
Compound,TGI (DU145 (Prostate)) [nM],CC50 (DU145 (Prostate)) [nM],GI50 (DU145 (Prostate)) [nM],Na+K+ ATPase inhibitory activity (in words) [1],CC50 (HCT116 (Colon)) [nM],GI50 (HCT116 (Colon)) [nM],IC (TGI) (HCT116 (Colon)) [nM],TGI (CAKJ1 (Renal)) [nM],CC50 (CAKJ1 (Renal)) [nM],GI50 (CAKJ1 (Renal)) [nM],TGI (A549 (Lung)) [nM],CC50 (A549 (Lung)) [nM],GI50 (A549 (Lung)) [nM],CC50 (SF268 (CNS)) [nM],GI50 (SF268 (CNS)) [nM],IC (TGI) (SF268 (CNS)) [nM],CC50 (OVCAR3 (Ovary)) [nM],GI50 (OVCAR3 (Ovary)) [nM],TGI (OVCAR3 (Ovary)) [nM],CC50 (OVCAR5 (Ovary)) [nM],further results
"C[C@]12CCC(=NOCCN)C=C1CCC1C2CC[C@@]2(C)C1CC[C@@H]2O (stereo partly drawn) [Compound 120, (1S,9aR,11aS)-17-hydroxy-10,13-dimethyl-6,7,8,9,10,11,12,13,14,15,16,17-dodecahydro-1H-cyclopenta[a]phenanthren-3(2H)-one O-2-aminoethyl oxime]",13540,68500,5870,strong Na+K+ ATPase inhibitory activities,39200,4280,16100,9900,61000,4910,62820,≥ 179000,6910,20400,4650,9080,> 100000,6500,41510,87100,"IC50 [1, 2]: 897 nM; GI50 (OVCAR5 (Ovary)): 20500 nM; TGI (OVCAR5 (Ovary)): 53800 nM; TGI (ERVK (Lung)): 38230 nM; CC50 (ERVK (Lung)): ≥ 105000 nM; GI50 (ERVK (Lung)): 4570 nM; CC50 (SKMEL28 (Melanoma)): 79600 nM; GI50 (SKMEL28 (Melanoma)): 19900 nM; TGI (SKMEL28 (Melanoma)): 49740 nM; CC50 (PCJ (Prostate)): 29400 nM; GI50 (PCJ (Prostate)): 4570 nM; IC (TGI) (PCJ (Prostate)): 14200 nM; CC50 (MB435 (Melanoma)): 98900 nM; GI50 (MB435 (Melanoma)): 7290 nM; TGI (MB435 (Melanoma)): 38950 nM; TGI (ADRRES (Ovary); SRB): 42910 nM; CC50 (ADRRES (Ovary)): 81900 nM; GI50 (ADRRES (Ovary); SRB): 8730 nM; GI50 in NCI-ADR-RES cells compared to non-resistant MCF-7 cells (ADRRES (Ovary); SRB): the same GI50 value; anti-tumor action in multidrug resistant cell line NCI-ADR-RES (ADRRES (Ovary); SRB): potent anti-tumor action"
"C[C@]12CCC(=NOCCN)CC1CCC1C2CC[C@]2(C)C(=O)CCC12 (stereo partly drawn) [Compound 1, (10S,13S)-3-(2-aminoethoxyimino)-10,13-dimethyltetradecahydro-1H-cyclopenta[a]phenanthren-17(2H)-one]",588.2,844,332,very potent Na+K+ ATPase inhibitors,8100,364,1310,643,948,338,582.5,850,315,908,385,647,984,291,637.5,7320,IC50 ([1]; read-out: Na+K+ ATPase inhibitory activity IC50): 124 nM; GI50 (OVCAR5 (Ovary)): 834 nM; TGI (OVCAR5 (Ovary)): 3763 nM; TGI (ERVK (Lung)): 640.6 nM; CC50 (ERVK (Lung)): 943 nM; GI50 (ERVK (Lung)): 338 nM; CC50 (SKMEL28 (Melanoma)): 7540 nM; GI50 (SKMEL28 (Melanoma)): 517 nM; TGI (SKMEL28 (Melanoma)): 928.4 nM; CC50 (PCJ (Prostate)): 897 nM; GI50 (PCJ (Prostate)): 253 nM; IC (TGI) (PCJ (Prostate)): 575 nM; CC50 (MB435 (Melanoma)): 6380 nM; GI50 (MB435 (Melanoma)): 598 nM; TGI (MB435 (Melanoma)): 1399.5 nM; TGI (ADRRES (Ovary); SRB): 647.9 nM; CC50 (ADRRES (Ovary)): 944 nM; GI50 (ADRRES (Ovary); SRB): 321 nM; anti-tumor action in multidrug resistant cell line NCI-ADR-RES (ADRRES (Ovary); SRB): potent anti-tumor action
"C[C@]12CCC(=NOC3CCNC3)C=C1CCC1C2CC[C@]2(C)C(=O)CCC12 (stereo partly drawn) [Compound 61, (10R,13S)-10,13-dimethyl-3-(pyrrolidin-3-yloxyimino)-2,3,7,8,9,10,11,12,13,14,15,16-dodecahydro-1H-cyclopenta[a]phenanthren-17(6H)-one]",626.2,895,357,strong Na+K+ ATPase inhibitory activities,9260,286,1310,1251.6,6650,268,514.9,823,207,8030,567,3020,6120,355,800.4,9060,"IC50 [1, 2]: 496 nM; GI50 (OVCAR5 (Ovary)): 3850 nM; TGI (OVCAR5 (Ovary)): 6454.9 nM; TGI (ERVK (Lung)): 2471 nM; CC50 (ERVK (Lung)): 6840 nM; GI50 (ERVK (Lung)): 493 nM; CC50 (SKMEL28 (Melanoma)): 12300 nM; GI50 (SKMEL28 (Melanoma)): 993 nM; TGI (SKMEL28 (Melanoma)): 6623 nM; CC50 (PCJ (Prostate)): 7420 nM; GI50 (PCJ (Prostate)): 281 nM; IC (TGI) (PCJ (Prostate)): 1810 nM; CC50 (MB435 (Melanoma)): 8200 nM; GI50 (MB435 (Melanoma)): 649 nM; TGI (MB435 (Melanoma)): 3378.4 nM; TGI (ADRRES (Ovary); SRB): 1015.6 nM; CC50 (ADRRES (Ovary)): 6070 nM; GI50 (ADRRES (Ovary); SRB): 564 nM; anti-tumor action in multidrug resistant cell line NCI-ADR-RES (ADRRES (Ovary); SRB): potent anti-tumor action"
